PubChem BioAssay AID1919003 (Molecular Pharmacology Branch, DTP, NCI, 2023)

System: 786-0 complex spheroids with HUVEC/MSC, growth % test/control
Experiment: Anticancer human tumor 786-0 cell line growth inhibition [AhR];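 note: compound exposure lasted seven days before the read-out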
Conditions: for IC50: curve of first compound; for viability, T/C: stronger effect = lower value; active = viability on the fitted dose curve at most 10% of control; inactive = the rest
Text: Multicellular complex tumor spheroid response to aryl hydrocarbon receptor antagonists in combination with a variety of drugs and investigational agents in selected tumor cell lines
The current study was undertaken to assess response to aryl hydrocarbon receptor antagonists in combination with standard-of-care drugs and investigational agents in solid tumor complex spheroid models. Complex spheroids include a stromal component modeled by human endothelial cells (HUVEC) and fibroblasts modeled by human mesenchymal stem cells (MSCs). The concentration ranges selected for each drug and investigational agent were based upon clinically achievable concentrations if the clinical Cmax of the agent was known.
Compounds. The drugs and investigational agents: BAY 2416964 (NSC825713), GNF351 (NSC835774), CH-223191 (NSC835775), CPI-455 (NSC825282), aza-TdCyd (NSC777586), decitabine (NSC127716), belinostat (NSC758774), entinostat (NSC756642), pevonedistat (NSC761192), tazemetostat (NSC777109), talazoparib (NSC765396), olaparib (NSC753686), selinexor (NSC780203), nedisertib (M3814, NSC802822), bortezomib (NSC756655), venetoclax (NSC766270), doxorubicin (NSC123127), elimusertib (BAY189344, NSC800525), ceralasertib (AZD6738, NSC777638), TAK-243 (NSC785004), alisertib (NSC759677), etoposide (NSC141540), topotecan (NSC609699), eribulin (NSC707389), gemcitabine (NSC613327), carboplatin (NSC241240), cisplatin (NSC119875), and SN-38 (NSC673596) were obtained from the National Cancer Institute (NCI) Developmental Therapeutics Program Chemical Repository (32). The FDA-approved anticancer drug set is available from the Developmental Therapeutics Program at https://dtp.cancer.gov/organization/dscb/obtaining/available plates.htm. […] The stock solutions were prepared in dimethyl sulfoxide (DMSO, Sigma-Aldrich, St. Louis, MO, cat. D2650), except for the platinum compounds which were prepared in saline (Quality Biological, Gaithersburg, MD, cat. 114-055-101), at 800-fold the tested concentration and stored at -70 degrees C prior to their use. All drugs and investigational agents were tested over a range starting from a high concentration at or near the clinical Cmax and decreasing in half-log increments. If the clinical Cmax for an agent had not been determined, the highest concentration tested was 10 microM (Table 1).
Cell Culture. All cells were maintained in an incubator at 37 degrees C and 5% CO2 with 95% humidity. The PDC lines were cultured according to standard operating procedures established by the NCI PDMR (https://pdmr.cancer.gov). Briefly, all PDCs were thawed and cultured in Matrigel-coated flasks prepared with a working solution of 1X Ham's F-12 nutrient mix, without supplementation (Invitrogen, Waltham, MA, cat. 11765054), 100 U/mL penicillin-streptomycin (Invitrogen, cat. 15140122), and 2.5% Matrigel (Corning Inc., Corning, NY, cat. 354248) for the first three passages. All PDCs were cultured in complete DMEM/F-12 media containing advanced DMEM/F-12 (Invitrogen, cat. 12634028), 4.9% defined fetal bovine serum, heat inactivated (HyClone Laboratories Inc., Logan, UT, cat. SH30070.03HI), 389 ng/mL hydrocortisone (Sigma-Aldrich, cat. H4001), 9.7 ng/mL human EGF recombinant protein (Invitrogen, cat. PHG0313), 23.4 microg/mL adenine (Sigma-Aldrich, cat. A2786), 97.3 U/mL penicillin-streptomycin (Invitrogen, cat. 15140122), 1.9 mM L-glutamine (Invitrogen, cat. 25030081), and 9.7 microM Y-27632 dihydrochloride (Tocris Bioscience, Bristol, United Kingdom, cat. 1254). The PDCs were cultured in complete DMEM/F12 media without 10 microM Y-27632 dihydrochloride for at least two passages prior to the screen. The established cell lines NCI-H1341 and […] were cultured in DMEM/F-12, HEPES (Invitrogen, cat. 11330032), 5% defined fetal bovine serum (HyClone Laboratories Inc., cat. SH30070.03), ITS premix universal culture supplement [insulin (5 microg/mL), transferrin (5 microg/mL), and selenious acid (5 ng/mL)] […]

[1] = second compound 0.1 µM, first compound 0.0316 µM
[2] = second compound 0.1 µM, first compound 0.1 µM
[3] = second compound 0.1 µM, first compound 0.316 µM
[4] = second compound 0.1 µM, first compound 1 µM
[5] = second compound 0.1 µM, first compound 3.16 µM
[6] = second compound 0.1 µM, first compound 10 µM
[7] = second compound 0.316 µM, first compound 0.0316 µM
[8] = second compound 0.316 µM, first compound 0.1 µM
[9] = second compound 0.316 µM, first compound 0.316 µM
[10] = second compound 0.316 µM, first compound 1 µM
[11] = second compound 0.316 µM, first compound 3.16 µM
[12] = second compound 0.316 µM, first compound 10 µM
[13] = second compound 1 µM, first compound 0.0316 µM
[14] = second compound 1 µM, first compound 0.1 µM
[15] = second compound 1 µM, first compound 0.316 µM
[16] = second compound 1 µM, first compound 1 µM
[17] = second compound 1 µM, first compound 3.16 µM
[18] = second compound 1 µM, first compound 10 µM
[19] = second compound 3.16 µM, first compound 0.0316 µM
[20] = second compound 3.16 µM, first compound 0.1 µM
[21] = second compound 3.16 µM, first compound 0.316 µM
[22] = second compound 3.16 µM, first compound 1 µM
[23] = second compound 3.16 µM, first compound 3.16 µM
[24] = second compound 3.16 µM, first compound 10 µM
[25] = second compound 10 µM, first compound 0.0316 µM
[26] = second compound 10 µM, first compound 0.1 µM
[27] = second compound 10 µM, first compound 0.316 µM
[28] = second compound 10 µM, first compound 1 µM
[29] = second compound 10 µM, first compound 3.16 µM
[30] = second compound 10 µM, first compound 10 µM

CC(C)CC(NC(=O)C(Cc1ccccc1)NC(=O)c1cnccn1)B(O)O (stereo not given) + CC(CO)NC(=O)c1cc(-c2ccc(Cl)cc2)nn(-c2cnn(C)c2)c1=O
active: viability, T/C (second compound 0.1 µM, first compound 0.03 µM) 0.34% | viability, T/C (second compound 0.1 µM, first compound 0.0949 µM) 0.27% | viability, T/C (second compound 0.1 µM, first compound 0.3 µM) 0.18% | viability, T/C (second compound 0.316 µM, first compound 0.03 µM) 0.39% | viability, T/C (second compound 0.316 µM, first compound 0.0949 µM) 0.19% | viability, T/C (second compound 0.316 µM, first compound 0.3 µM) 0.19% | viability, T/C (second compound 1 µM, first compound 0.03 µM) 0.56% | viability, T/C (second compound 1 µM, first compound 0.0949 µM) 0.17% | viability, T/C (second compound 1 µM, first compound 0.3 µM) 0.33% | viability, T/C (second compound 3.16 µM, first compound 0.03 µM) 1.26% | viability, T/C (second compound 3.16 µM, first compound 0.0949 µM) 0.23% | viability, T/C (second compound 3.16 µM, first compound 0.3 µM) 0.25% | viability, T/C (second compound 10 µM, first compound 0.03 µM) 1.88% | viability, T/C (second compound 10 µM, first compound 0.0949 µM) 0.9% | viability, T/C (second compound 10 µM, first compound 0.3 µM) 0.37%
0.00788 µM: IC50 (second compound 10 µM)
inactive: viability, T/C (second compound 0.1 µM, first compound 0.000949 µM) 108% | viability, T/C (second compound 0.1 µM, first compound 0.003 µM) 103% | viability, T/C (second compound 0.1 µM, first compound 0.00949 µM) 38.4% | viability, T/C (second compound 0.316 µM, first compound 0.000949 µM) 114% | viability, T/C (second compound 0.316 µM, first compound 0.003 µM) 117% | viability, T/C (second compound 0.316 µM, first compound 0.00949 µM) 41.9% | viability, T/C (second compound 1 µM, first compound 0.000949 µM) 112% | viability, T/C (second compound 1 µM, first compound 0.003 µM) 112% | viability, T/C (second compound 1 µM, first compound 0.00949 µM) 43.3% | viability, T/C (second compound 3.16 µM, first compound 0.000949 µM) 117% | viability, T/C (second compound 3.16 µM, first compound 0.003 µM) 118% | viability, T/C (second compound 3.16 µM, first compound 0.00949 µM) 37.6% | viability, T/C (second compound 10 µM, first compound 0.000949 µM) 120% | viability, T/C (second compound 10 µM, first compound 0.003 µM) 127% | viability, T/C (second compound 10 µM, first compound 0.00949 µM) 35.9%
0.00771 µM: IC50 (second compound 0.1 µM)
0.00794 µM: IC50 (second compound 3.16 µM)
0.00836 µM: IC50 (second compound 0.316 µM)
0.00849 µM: IC50 (second compound 1 µM)

Nc1ccccc1NC(=O)c1ccc(CNC(=O)OCc2cccnc2)cc1 + CC(CO)NC(=O)c1cc(-c2ccc(Cl)cc2)nn(-c2cnn(C)c2)c1=O
4.78 µM: IC50 (second compound 1 µM)
5.28 µM: IC50 (second compound 0.1 µM)
4.08 µM: IC50 (second compound 10 µM)
5.23 µM: IC50 (second compound 0.316 µM)
inactive: viability, T/C [1] 107% | viability, T/C [2] 104% | viability, T/C [3] 110% | viability, T/C [4] 104% | viability, T/C [5] 73.8% | viability, T/C [6] 20.3% | viability, T/C [7] 114% | viability, T/C [8] 99.3% | viability, T/C [9] 113% | viability, T/C [10] 101% | viability, T/C [11] 76.7% | viability, T/C [12] 15.9% | viability, T/C [13] 101% | viability, T/C [14] 112% | viability, T/C [15] 98.1% | viability, T/C [16] 104% | viability, T/C [17] 68.5% | viability, T/C [18] 16.9% | viability, T/C [19] 111% | viability, T/C [20] 110% | viability, T/C [21] 110% | viability, T/C [22] 92% | viability, T/C [23] 65.7% | viability, T/C [24] 18.8% | viability, T/C [25] 113% | viability, T/C [26] 114% | viability, T/C [27] 102% | viability, T/C [28] 96.4% | viability, T/C [29] 58% | viability, T/C [30] 18.8%
4.6 µM: IC50 (second compound 3.16 µM)

O=C(c1cc(Cc2n[nH]c(=O)c3ccccc23)ccc1F)N1CCN(C(=O)C2CC2)CC1 + CC(CO)NC(=O)c1cc(-c2ccc(Cl)cc2)nn(-c2cnn(C)c2)c1=O
inactive: viability, T/C [1] 96.1% | viability, T/C [2] 101% | viability, T/C [3] 98.8% | viability, T/C [4] 102% | viability, T/C [5] 102% | viability, T/C [6] 91.5% | viability, T/C [7] 100% | viability, T/C [8] 102% | viability, T/C [9] 97.9% | viability, T/C [10] 101% | viability, T/C [11] 98.8% | viability, T/C [12] 98.9% | viability, T/C [13] 98.7% | viability, T/C [14] 102% | viability, T/C [15] 99.9% | viability, T/C [16] 103% | viability, T/C [17] 101% | viability, T/C [18] 99% | viability, T/C [19] 97.3% | viability, T/C [20] 109% | viability, T/C [21] 95.3% | viability, T/C [22] 104% | viability, T/C [23] 99.8% | viability, T/C [24] 89.9% | viability, T/C [25] 113% | viability, T/C [26] 107% | viability, T/C [27] 108% | viability, T/C [28] 114% | viability, T/C [29] 107% | viability, T/C [30] 90.9%
> 10 µM: IC50 (second compound 0.1 µM) | IC50 (second compound 0.316 µM) | IC50 (second compound 1 µM) | IC50 (second compound 3.16 µM) | IC50 (second compound 10 µM)
